Laboratory results as given in patent publication US7960588B2, “Benzyl cycloalkyl sphingosine 1-phosphate receptor modulators” (University of Virginia Patent Foundation, priority 2007, dated 2011).

Tested on: blood lymphocytes
Assay: Lymphopenia assay (circulating lymphocyte counts after oral gavage)
Assay type: in vivo
Conditions: mice; for lymphopenia (circulating lymphocyte counts): single dose 10 mg/kg in 2% hydroxypropyl beta-cyclodextrin, blood drawn after 18 hours
Protocol: The test compounds VPC122096 (benzylcyclopentyl), VPC122093 (benzylcyclohexyl) or VPC122097 (benzylcycloheptyl) compounds are dissolved in 2% hydroxypropyl beta-cyclodextrin and administered to mice by oral gavage at doses from 0.01 to 10 mg/kg body weight. After 24 hours (or other specified times), the mice are lightly anesthetized and ca. 0.1 ml of blood is drawn from the orbital sinus. The number of lymphocytes (in thousands per microliter of blood; normal is 4-11) is determined using a Hemavet blood analyzer. There were three mice per group, male, 10-11 weeks old, and the strain was mixed sv129×C57BL/6.
The test compounds VPC122096, VPC122097, or VPC122093 were dissolved in 2% aqueous hydroxypropyl beta-cyclodextrin and introduced into mice by oral gavage at 10 mg/kg (Three mice per group). Blood was drawn after 18 hours and examined. […] The results are illustrated in FIG. 3.
The test compound VPC122096, was dissolved in 2% aqueous hydroxypropyl beta-cyclodextrin (vehicle) and administered to mice orally (gavage) at doses of 0.01 mg/kg, 0.03 mg/kg, 0.1 mg/kg, 0.3 mg/kg, 1 mg/kg, and 3 mg/kg to provide a dose response curve (three-four mice per group, adult, C57Bl/6 strain). The blood samples were taken at 18 hours and 42 hours. Three mice per group, male, 10-11 week old sv129/C57Bl6 strain. The results are illustrated in FIG. 4. The ordinate represents lymphocytes in K/μl. The abscissa represents time in days after administration of a single dose. The ordinate represents lymphocytes in K/μl. The abscissa represents dose in milligram compound per kilogram body weight (mpk).
The duration of the effect of the test compounds was evaluated after administration of test compound VPC122096, dissolved in 2% aqueous hydroxypropyl beta-cyclodextrin (vehicle) and administered to mice orally (gavage). […] The blood samples were taken at 16 hours, 4 days, 12 days, and 19 days. FIG. 5 illustrates total blood lymphocyte count following the single dose of VPC122096 or vehicle.

SMILES	lymphopenia (circulating lymphocyte counts) (oral gavage)	lymphopenia, duration of the effect (total blood lymphocyte count) (oral gavage, single dose (1.0 mg/kg per FIG. 5), blood samples at 16 hours, 4 days, 12 days, 19 days)	duration of lymphopenia (single ED95 dose, oral)
CCCCCCCCc1ccc(CC2CCCC2(N)CO)cc1 (centres unmarked) [VPC122096, (1-amino-2-(4′-octylbenzyl)cyclopentyl)methanol]	evoked lymphopenia	evoked a long lasting lymphopenia	a week or more
CCCCCCCCc1ccc(CC2CCCC(CO)C2N)cc1 (centres unmarked) [VPC122093]	evoked lymphopenia		
CCCCCCCCc1ccc(CC2CCCCCC2(N)CO)cc1 (centres unmarked) [VPC122097]	evoked lymphopenia		
